For one compound, activation results are on record in publication PMC8930067 (Cardiovascular Research, 2021).

Structures can show the parent of a compound that is named as a salt.

In this test the target is SERCA2a (Rattus norvegicus, UniProt P11507). In words: […]-ATP hydrolysis. The test is classed as cell-based. To be noted: read-out: % Vmax at 500 nmol/L.
Chain of SERCA2a (P11507 1-997 isoform P11507-2): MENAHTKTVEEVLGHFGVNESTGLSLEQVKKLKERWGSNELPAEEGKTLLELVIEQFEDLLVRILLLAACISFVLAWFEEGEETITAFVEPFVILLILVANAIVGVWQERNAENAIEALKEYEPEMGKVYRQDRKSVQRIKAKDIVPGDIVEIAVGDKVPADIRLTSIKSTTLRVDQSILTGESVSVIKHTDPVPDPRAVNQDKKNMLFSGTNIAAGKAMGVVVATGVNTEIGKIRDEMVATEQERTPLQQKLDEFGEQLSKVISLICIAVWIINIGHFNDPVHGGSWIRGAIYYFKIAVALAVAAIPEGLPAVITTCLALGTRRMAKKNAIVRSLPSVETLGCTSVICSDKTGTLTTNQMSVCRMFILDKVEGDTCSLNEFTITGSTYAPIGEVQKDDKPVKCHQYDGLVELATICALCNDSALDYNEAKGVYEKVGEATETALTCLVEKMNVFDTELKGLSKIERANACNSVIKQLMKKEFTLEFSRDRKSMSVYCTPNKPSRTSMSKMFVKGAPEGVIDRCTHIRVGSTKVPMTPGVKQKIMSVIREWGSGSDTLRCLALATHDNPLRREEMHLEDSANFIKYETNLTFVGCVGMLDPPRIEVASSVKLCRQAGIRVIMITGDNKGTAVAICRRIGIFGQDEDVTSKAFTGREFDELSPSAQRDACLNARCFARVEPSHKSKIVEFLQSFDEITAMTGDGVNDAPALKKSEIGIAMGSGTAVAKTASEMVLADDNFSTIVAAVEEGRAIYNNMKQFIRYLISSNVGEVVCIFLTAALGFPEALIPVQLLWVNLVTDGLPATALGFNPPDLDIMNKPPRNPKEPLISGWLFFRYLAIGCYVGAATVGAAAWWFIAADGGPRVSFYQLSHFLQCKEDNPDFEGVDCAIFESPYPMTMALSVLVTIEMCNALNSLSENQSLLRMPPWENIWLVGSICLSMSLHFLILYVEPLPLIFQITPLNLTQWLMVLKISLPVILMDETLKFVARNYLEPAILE

On to `C[C@]12CCC(=NOCCN)C[C@@H]1C(=O)C[C@@H]1[C@@H]2CC[C@]2(C)C(=O)CC[C@@H]12` [istaroxime, (E,Z)-3-((2-aminoethoxy)imino)androstane-6,17-dione hydrochloride], for which the activation at 0.5 µM was 25%.
